{"source": "patent US20250034116A1", "about": "“1,4-DIHETEROCYCLIC SUBSTITUTED AROMATIC RING OR AROMATIC HETEROCYCLIC COMPOUND AND USE THEREOF” (BeBetter Med Inc., priority 2022, published 2025)", "key": {"[1]": {"tested_on": "CYP enzymes in human liver microsomes (HLM)", "experiment": "Inhibition of 20-HETE production in human liver microsomes (HLM)", "format": "biochemical", "outline": "(§1)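 LC-MS/MS read-out of 20-HETE formation, expressed as activity relative to no-inhibitor control and fitted to a Hill equation for IC50; percent inhibition also given at 1000, 500 or 100 nM. Enzyme sources: recombinant CYP4F2, recombinant CYP4A11, or human or mouse liver microsomes. Each is combined with compound and substrate (400 μM solution) and warmed 10 min at 37 °C, then incubated 25 min at 37 °C after adding NADPH (6 mM solution).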"}, "[2]": {"tested_on": "CYP enzymes in rat liver microsomes (RLM)", "experiment": "Inhibition of 20-HETE production in rat liver microsomes (RLM)", "format": "biochemical", "outline": "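Test compounds were dissolved in DMSO, diluted in acetonitrile/DMSO (3:1), and 2 μl was mixed with 100 μl potassium phosphate buffer containing rat liver microsomes in a 96-well plate. Duplicate 30 μl aliquots received 15 μl of 400 μM substrate, were preheated at 37° C. for 10 minutes, then started with 15 μl of 6 mM NADPH for 25 minutes. LC-MS/MS measured 20-HETE formation.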"}, "[3]": {"tested_on": "CYP enzymes in mouse liver microsomes (MLM)", "experiment": "Inhibition of 20-HETE production in mouse liver microsomes (MLM)", "format": "biochemical", "outline": "as §1"}, "[4]": {"molecular_target": "recombinant CYP4A11 (rCYP4A11) (Homo sapiens (Human), UniProt Q02928)", "sequence (Q02928 5-519)": "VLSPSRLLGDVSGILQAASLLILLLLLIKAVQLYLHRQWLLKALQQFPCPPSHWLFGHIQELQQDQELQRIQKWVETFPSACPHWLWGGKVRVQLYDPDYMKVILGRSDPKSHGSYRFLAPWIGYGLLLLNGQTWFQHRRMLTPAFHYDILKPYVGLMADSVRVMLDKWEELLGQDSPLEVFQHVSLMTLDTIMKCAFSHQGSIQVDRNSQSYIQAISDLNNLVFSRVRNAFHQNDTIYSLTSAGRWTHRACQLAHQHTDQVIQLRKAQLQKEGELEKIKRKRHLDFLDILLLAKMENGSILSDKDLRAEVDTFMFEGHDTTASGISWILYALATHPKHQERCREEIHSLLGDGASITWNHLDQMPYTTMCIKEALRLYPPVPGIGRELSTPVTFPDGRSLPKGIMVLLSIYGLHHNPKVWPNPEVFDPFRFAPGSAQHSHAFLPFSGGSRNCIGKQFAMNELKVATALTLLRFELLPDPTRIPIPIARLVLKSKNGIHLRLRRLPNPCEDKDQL", "experiment": "Inhibition of 20-HETE production by recombinant CYP4A11", "format": "biochemical", "outline": "as §1"}, "[5]": {"tested_on": "diet-induced obesity (DIO) mouse model", "experiment": "Experiment 2: compound 2 and 4, weight loss and blood glucose lowering in DIO mouse model", "format": "in vivo, Male C57BL/6J mice", "source_text": "Experiment 2 was to study the effects of compound 2 and 4 on weight loss and blood glucose lowering in a diet-induced obesity (DIO) mouse model. Male C57BL/6J mice were purchased from Zhuhai BST Biotechnology Co., Ltd. and housed in a barrier system animal facility. Animals were randomly divided into 4 groups: normal control group, DIO model control group, DIO model compound 2 treatment group, and DIO model compound 4 treatment group, with 4-5 animals per group. The model control group and treatment groups were first fed with high-fat diet (HFD) for 9 weeks (day 63), and then the treatment groups were orally administered with compound 2 or compound 4 at a dose of 50 mg/kg once daily for 4 consecutive weeks, while continuing to receive HFD. Animal weights were measured weekly, and on the last day of treatment, they were fasted overnight but allowed access to water before an oral glucose tolerance test (OGTT)."}, "[6]": {"tested_on": "diet-induced obesity (DIO) mouse model", "experiment": "Experiment 3: compound 2, weight loss and blood glucose lowering in DIO mouse model", "format": "in vivo, Male C57BL/6J mice", "source_text": "Experiment 3 was to study the effects of compound 2 on weight loss and blood glucose lowering in a diet-induced obesity (DIO) mouse model. Male C57BL/6J mice were purchased from Zhuhai BST Biotechnology Co., Ltd. and housed in a barrier system animal facility. Animals were randomly divided into 3 groups: normal control group, DIO model control group, and DIO model compound 2 treatment group, with 6-8 animals per group. The model control group and treatment group were first fed with high-fat diet (HFD) for 9 weeks (day 63), and then the treatment group was orally administered with compound 2 at a dose of 30 mg/kg once daily for 8 consecutive weeks, while continuing to receive HFD. Animal weights were measured weekly, and on the last day of treatment, they were fasted overnight but allowed access to water before an oral glucose tolerance test (OGTT)."}, "[7]": {"tested_on": "diet-induced obesity (DIO) mouse model", "experiment": "Experiment 4: weight loss of compound 2 compared with semaglutide in DIO mouse model", "format": "in vivo, Male C57BL/6J mice", "source_text": "Experiment 4 was to compare the weight loss effects of compound 2 with that of semaglutide in a diet-induced obesity (DIO) mouse model. Male C57BL/6J mice were purchased from Vital River Laboratories (Shanghai) Co., Ltd. and housed in a barrier system animal facility. Animals were randomly divided into 4 groups: normal control group, DIO model control group, compound 2 treatment group, and semaglutide treatment group, with 6 animals per group. The model control group and treatment groups were first fed with high-fat diet (HFD) for 18 weeks, after which the treatment groups were administered with compound 2 or semaglutide, respectively. Compound 2 was administered orally at a dose of 30 mg/kg once daily for 14 consecutive weeks, while semaglutide was administered subcutaneously at a dose of 30 nmol/kg once daily. After 7 weeks of semaglutide treatment, the semaglutide treatment group was switched to compound 2 treatment for another 7 weeks."}, "20-HETE": {"tested_on": "20-HETE", "experiment": "Experiment 5: level of 20-HETE in DIO mouse model", "format": "in vivo, Male C57BL/6J mice", "conditions": "DIO mice, single oral dose 50 mg/kg, 8 hours; most pronounced in the liver and kidneys", "experimental": "Experiment 5 was to investigate the effect of compound 2 on regulating the level of 20-HETE in a diet-induced obesity (DIO) mouse model. Male C57BL/6J mice were purchased from Guangdong Vital River Laboratory Animal Technology Co., Ltd. and housed in a barrier system animal facility. After 24 weeks of high-fat diet (HFD) induction, compound 2 was administered at a dose of 50 mg/kg once, and samples were collected after 8 hours to detect the level of 20-HETE. A solvent control group was also set up simultaneously, with 3 animals per group."}, "[8]": {"conditions": "50 mg/kg orally once daily for 4 weeks, DIO mice"}, "[9]": {"conditions": "30 mg/kg orally once daily for 8 weeks, DIO mice"}}}
{"smiles": "O=C1CCCN1CC1CCN(c2ccc(-c3cn[nH]c3)cc2F)CC1", "note": "[Compound 2, 1-((1-(2-fluoro-4-(1H-pyrazol-4-yl)phenyl)piperidin-4-yl)methyl)pyrrolidin-2-one]", "values": [{"measurement": "IC50", "setting": "[1]", "value": 28.7, "unit": "nM"}, {"measurement": "HLM (% inh @ 500 nM)", "setting": "[1]; 500 nM", "value": 79.50, "unit": "%"}, {"measurement": "IC50", "setting": "[2]", "value": 103, "unit": "nM"}, {"measurement": "RLM (% inh @ 500 nM)", "setting": "[2]; 500 nM", "value": 59.38, "unit": "%"}, {"measurement": "IC50", "setting": "[3]", "value": 1340, "unit": "nM"}, {"measurement": "IC50", "setting": "[4]", "value": 33.2, "unit": "nM"}, {"measurement": "fasting blood glucose", "setting": "[5]; [8]", "value": "inhibit the increase in fasting blood glucose"}, {"measurement": "glucose metabolism (OGTT)", "setting": "[5]; [8]", "value": "enhance glucose metabolism"}, {"measurement": "body weight decrease, of the pre-administration weight", "setting": "[5]; 50 mg/kg orally once daily, first week of administration, after 9 weeks HFD", "value": "12%-16%"}, {"measurement": "fasting blood glucose", "setting": "[6]; [9]", "value": "inhibit the increase in fasting blood glucose"}, {"measurement": "glucose metabolism (OGTT)", "setting": "[6]; [9]", "value": "enhance their glucose metabolism"}, {"measurement": "food intake compared to the DIO model control group", "setting": "[6]; 30 mg/kg orally once daily, after 2 weeks", "value": "no difference"}, {"measurement": "difference in weight gain relative to the DIO model control group", "setting": "[6]; 30 mg/kg orally once daily, after 8 weeks", "value": 47.1, "unit": "%"}, {"measurement": "body weight decrease, of pre-administration weight", "setting": "[6]; 30 mg/kg orally once daily, after 8 weeks, DIO mice", "value": 20.8, "unit": "%"}, {"measurement": "food intake", "setting": "[6]; 30 mg/kg orally once daily, first 2 weeks of administration", "value": "decreased"}, {"measurement": "maximum weight loss effect, decrease compared to pre-administration weight", "setting": "[7]; 30 mg/kg orally once daily, after 6 weeks", "value": "approximately 36%"}, {"measurement": "food intake", "setting": "[7]; 30 mg/kg orally once daily, returned to control level in the 6th week", "value": "slightly decreased"}, {"measurement": "body weight decrease, of pre-administration weight", "setting": "[7]; 7 weeks semaglutide, then switched to compound 2 for 7 weeks", "value": 33.6, "unit": "%"}, {"measurement": "weight loss effect compared with semaglutide", "setting": "[7]; DIO mouse model", "value": "greater weight loss effect than semaglutide"}, {"measurement": "20-HETE levels in the liver, kidneys, and brain tissues compared to the solvent control group", "setting": "20-HETE", "value": "varying degrees of decrease"}]}
